Measurements published in paper PMC8498988, “Scaffold Hybridization Strategy Leads to the Discovery of Dopamine D3 Receptor-Selective or Multitarget Bitopic Ligands Potentially Useful for Central Nervous System Disorders” (ACS Chemical Neuroscience, 2021).

Legend:
human D1R = target: T1, human D1R (Homo sapiens, UniProt P21728); experiment: Radioligand binding assay at human D1R ([3H]SCH23390, mouse fibroblast LhD1 cells); conditions: [3H]SCH23390, mouse fibroblast cells expressing hD1R; read-out: Ki ± SEM, D1R
T1 construct: expressed in transfected cells; host or cells: mouse fibroblast cells (LhD1)
Description: Mouse fibroblast cells expressing the human D1R at high density (LhD1 cells) are used. The cells are grown to confluence in DMEM containing 10% FetalClone1 serum (FCS, HyClone), 0.05% penicillin–streptomycin (pen-strep), and 400 μg/mL of Geneticin (G418). Three confluent 150 mm plates yield enough membranes for three assay plates with ∼10–15 μg protein per well. The cells from three 150 mm plates are scraped and centrifuged at 500×g for 5 min. The pellet is overlaid with 2 mL assay buffer (50 mM Tris–HCl containing 120 mM NaCl, 5 mM KCl, 2 mM CaCl2, and 1 mM MgCl2) and frozen at −70 °C. On the day of experiment, the pellet is homogenized in 30 mL assay buffer with a polytron. Cell homogenate (100 μL) is added to wells containing 800 μL of test drug or buffer. After a 10 min preincubation, 100 μL of [^3H]SCH-23390 (0.18 nM final concentration) is added. The plates are incubated at 25 C for 60 min. The reaction is terminated by filtration using a Tomtec 96 well harvester, and the radioactivity on the filters is determined using a PerkinElmer microbeta scintillation counter. Nonspecific binding is determined with 1 μM SCH-23390.

5-HT2CR = target: T2, 5-HT2CR (Homo sapiens, UniProt P28335); experiment: 5-HT2C IP-1 formation (HEK-h5HT2C cells); conditions: for % stimul., 5-HT2C IP-1 formation: agonist mode, normalized to the maximal stimulation by serotonin; for functional behavior at 5-HT2CR: in words
T2 sequence (P28335 33-458): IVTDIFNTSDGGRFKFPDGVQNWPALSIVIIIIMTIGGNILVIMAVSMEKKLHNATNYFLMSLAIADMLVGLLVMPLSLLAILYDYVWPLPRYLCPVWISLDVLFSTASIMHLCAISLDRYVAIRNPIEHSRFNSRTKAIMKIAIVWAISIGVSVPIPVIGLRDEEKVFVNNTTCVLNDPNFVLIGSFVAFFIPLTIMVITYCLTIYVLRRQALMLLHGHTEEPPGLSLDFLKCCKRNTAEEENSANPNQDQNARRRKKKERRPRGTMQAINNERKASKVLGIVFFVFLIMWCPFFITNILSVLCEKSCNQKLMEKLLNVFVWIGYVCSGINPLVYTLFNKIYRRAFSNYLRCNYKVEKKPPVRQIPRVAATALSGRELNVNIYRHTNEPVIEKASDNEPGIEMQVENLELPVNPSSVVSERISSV
Description: HEK-h5HT2A or HEK-h5HT2C cells are used as the tissue source. The day before the experiment, cells are plated in 24-well plates at a density of 400,000 cells per well using DMEM supplemented with charcoal-stripped FetalClone. Drugs are made up in stimulation buffer supplied in the kit. Medium is removed from the well, test compounds or serotonin or antagonist or buffer is added, and the cells are incubated for 1 h. The cells are lysed for 30 min, and 50 μL of cell lysate is added to the IP-1 plates. After the addition of appropriate antibodies, the plates are incubated for 3 h, washed six times, incubated with the substrate for 20 min, and, after termination of the reaction, the plate is read on a plate reader at 450 nm with a correction at 620 nm.

D4R = target: T3, D4R (Homo sapiens, UniProt P21917); experiment: D4 adenylate cyclase/cAMP functional assay (HEK-D4.4-AC1 cells); format: cell-based; design: expressed in transfected cells; host or cells: HEK-D4.4-AC1 cells; conditions: for EC50 / % stimul., D4 adenylate cyclase: agonist mode; for EC50: inhibition of forskolin-stimulated cAMP formation; for % stimul., D4 adenylate cyclase: normalized to maximal effect of quinpirole; for functional behavior at D4R: in words
T3 sequence (P21917 1-419): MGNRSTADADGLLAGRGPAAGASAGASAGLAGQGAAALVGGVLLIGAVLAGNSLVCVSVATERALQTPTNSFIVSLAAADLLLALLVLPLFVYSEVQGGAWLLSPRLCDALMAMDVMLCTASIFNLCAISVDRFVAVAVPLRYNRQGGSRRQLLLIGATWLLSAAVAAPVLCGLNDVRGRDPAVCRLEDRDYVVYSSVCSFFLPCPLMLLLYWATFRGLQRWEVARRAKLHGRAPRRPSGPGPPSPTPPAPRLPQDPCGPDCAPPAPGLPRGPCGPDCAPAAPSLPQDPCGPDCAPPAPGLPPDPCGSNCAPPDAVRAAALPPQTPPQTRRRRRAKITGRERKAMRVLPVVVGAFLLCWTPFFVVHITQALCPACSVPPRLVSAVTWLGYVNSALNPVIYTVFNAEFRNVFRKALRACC
Description: HEK-D4.4-AC1 cells are grown to confluency on […]. The cells are plated at a density of 375,000 cells per well in 48-well plates in DMEM supplemented with 5% FetalClone, 5% BCS, and pen-strep. After ∼36 h, the medium is changed to DMEM supplemented with 10% charcoal-stripped FetalClone and pen-strep. The medium is removed ∼18 h later. For agonist assays, 0.8 mL of EBSS (116 mM NaCl, 22 mM glucose, 15 mM HEPES, 8.7 mM NaH2PO4, 5.4 mM KCl, 1.3 mM CaCl2, 1.2 mM MgSO4, 1 mM ascorbic acid, 0.5 mM IBMX [3-isobutyl-1-methyl-xanthine], and 2% BCS, pH 7.4 at 37 °C) is added, cells are incubated for 20 min, agonists are added, and, after a 20 min incubation, 10 μM of forskolin is added in a final volume of 1 mL. For antagonists, 0.7 mL of EBSS is added, cells are incubated for 10 min, antagonists are added, cells are incubated for 10 min, 2 nM quinpirole is added, and after a 20 min incubation, 10 μM forskolin is added in a final volume of 1 mL. For all conditions, after a 20 min incubation with forskolin, the reaction is terminated by aspiration of the buffer, and 0.1 mL of trichloroacetic acid is added. The plates are incubated for 2 h on a rotator. Adenylate cyclase activity is measured using a cyclic AMP EIA kit (Cayman). Aliquots (9 μL) of each well are diluted to 200 μL with EIA buffer from the kit, and 50 μL of dilution is added to the EIA plate. After addition of tracer and monoclonal antibody, the EIA plates are incubated for 18 h at 4 °C. The reaction is aspirated, the plates are washed with 5 × 300 μL wash buffer, and Ellman’s reagent is added. After a 2 hour incubation in the dark on a rotator, the plates are read at 410 nm. Basal cAMP is subtracted from all values. D4R agonists inhibit forskolin-stimulated cAMP formation, and maximal inhibition is defined with 1 μM quinpirole. Data normalized to percent forskolin stimulation are shown in the graph. The maximal effect is normalized to maximal effect of quinpirole in the tables. For antagonists, maximal reversal of inhibition of cAMP formation is defined with 10 μM haloperidol.

D3R = D3R (Homo sapiens, UniProt P35462); experiment: Radioligand competition binding at human D3R ([3H]N-methylspiperone, HEK293 membranes); design: expressed in transfected cells; host or cells: HEK293; conditions: selectivity
Chain of D3R (P35462 whole entry): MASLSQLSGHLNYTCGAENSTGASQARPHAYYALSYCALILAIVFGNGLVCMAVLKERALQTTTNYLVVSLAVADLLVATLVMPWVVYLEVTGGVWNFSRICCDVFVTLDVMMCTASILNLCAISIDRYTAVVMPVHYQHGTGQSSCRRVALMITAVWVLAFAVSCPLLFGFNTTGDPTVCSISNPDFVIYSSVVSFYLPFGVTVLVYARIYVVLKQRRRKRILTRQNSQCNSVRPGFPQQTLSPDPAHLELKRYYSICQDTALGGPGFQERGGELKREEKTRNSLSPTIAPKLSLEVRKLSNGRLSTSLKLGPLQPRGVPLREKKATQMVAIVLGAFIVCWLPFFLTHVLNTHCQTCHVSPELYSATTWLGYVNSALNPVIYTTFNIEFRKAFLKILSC

T1 sequence (P21728 whole entry): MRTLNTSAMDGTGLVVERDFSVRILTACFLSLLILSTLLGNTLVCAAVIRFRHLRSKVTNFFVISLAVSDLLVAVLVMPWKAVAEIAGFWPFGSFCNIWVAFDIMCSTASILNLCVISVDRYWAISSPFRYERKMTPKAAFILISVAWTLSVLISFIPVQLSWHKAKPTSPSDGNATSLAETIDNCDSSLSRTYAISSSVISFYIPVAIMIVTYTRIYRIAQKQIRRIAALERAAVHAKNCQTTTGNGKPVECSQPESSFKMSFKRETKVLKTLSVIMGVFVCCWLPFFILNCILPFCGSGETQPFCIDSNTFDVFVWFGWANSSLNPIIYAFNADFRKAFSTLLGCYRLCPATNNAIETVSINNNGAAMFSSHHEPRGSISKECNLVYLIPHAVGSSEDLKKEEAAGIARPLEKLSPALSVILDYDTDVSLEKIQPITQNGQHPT

O=C(NCCCCN1CCN(c2cccc(Cl)c2Cl)CC1)C1COC(c2ccccc2)(c2ccccc2)CO1 (stereo not shown) [compound 6, N-(4-(4-(2,3-Dichlorophenyl)piperazin-1-yl)butyl)-5,5-diphenyl-1,4-dioxane-2-carboxamide]
Ki (human D1R): 700 ± 150 nM | EC50 (5-HT2CR): 380 ± 130 nM | % stimul., 5-HT2C IP-1 formation (5-HT2CR): 33% | functional behavior at 5-HT2CR (5-HT2CR): D3R and 5-HT2CR partial agonists with high and low potency, respectively | EC50 (D4R): 21.7 ± 8.4 nM | % stimul., D4 adenylate cyclase (D4R): 76.7% | functional behavior at D4R (D4R): efficacious 5-HT1AR and D4R agonists with high potency

O=C(NCCCCN1CCN(c2cccc(Cl)c2Cl)CC1)C1COCC(c2ccccc2)(c2ccccc2)O1 (stereo not shown) [compound 3, N-(4-(4-(2,3-Dichlorophenyl)piperazin-1-yl)butyl)-6,6-diphenyl-1,4-dioxane-2-carboxamide]
5-HT1A/D3 (D3R; ratio of Ki values 5-HT1AR/D3R): 121 | 5-HT2A/D3 (D3R; ratio of Ki values 5-HT2AR/D3R): 108 | 5-HT2C/D3 (D3R; ratio of Ki values 5-HT2CR/D3R): 269 | D1/D3 (D3R; ratio of Ki values D1R/D3R): 185 | Ki (human D1R): 442 ± 52 nM

O=C(NCCCCN1CCN(c2cccc(Cl)c2Cl)CC1)C1COc2ccccc2O1 (stereo not shown) [compound 9, N-(4-(4-(2,3-Dichlorophenyl)piperazin-1-yl)butyl)-2,3-dihydrobenzo[b][1,4]dioxine-2-carboxamide]
Ki (human D1R): 680 ± 160 nM | EC50 (5-HT2CR): 750 ± 280 nM | % stimul., 5-HT2C IP-1 formation (5-HT2CR): 37% | functional behavior at 5-HT2CR (5-HT2CR): D3R and 5-HT2CR partial agonists with high and low potency, respectively | EC50 (D4R): 15.3 ± 1.9 nM | % stimul., D4 adenylate cyclase (D4R): 73.1% | functional behavior at D4R (D4R): efficacious 5-HT1AR and D4R agonists with high potency
